From ChEMBL document CHEMBL1201862, “PubChem BioAssay data set” (2004)
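A five-concentration, 48-hour dose response in 96-well plates underlies each endpoint, interpolated linearly between surrounding concentrations. GI50: concentration for 50% inhibition of growth.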 The source made the active and inactive calls. Cut-off read from the data, not from the text of the source: active = GI50 up to about 1.1 µM and inactive = higher.

Experiments:
Assay in all cases: NCI tumour cell line growth inhibition, 48 h
U-251 = test system: U-251
SR = test system: SR
UO-31 = test system: UO-31
ACHN = test system: ACHN
CAKI-1 = test system: CAKI-1
HOP-62 = test system: HOP-62
DU-145 = test system: DU-145
OVCAR-8 = test system: OVCAR-8
SW-620 = test system: SW-620
EKVX = test system: EKVX
MCF7 = test system: MCF7
NCI-H23 = test system: NCI-H23
COLO 205 = test system: COLO 205
IGROV-1 = test system: IGROV-1
K562 = test system: K562
A549 = test system: A549
SK-MEL-5 = test system: SK-MEL-5
OVCAR-5 = test system: OVCAR-5
T47D = test system: T47D
Hs-578T = test system: Hs-578T
HT-29 = test system: HT-29
UACC-257 = test system: UACC-257
SK-MEL-2 = test system: SK-MEL-2
LOX IMVI = test system: LOX IMVI
SF-268 = test system: SF-268
KM12 = test system: KM12
OVCAR-3 = test system: OVCAR-3
SF-295 = test system: SF-295
PC-3 = test system: PC-3
MDA-MB-435 = test system: MDA-MB-435
NCI/ADR-RES = test system: NCI/ADR-RES
786-0 = test system: 786-0
MDA-N = test system: MDA-N
CCRF-CEM = test system: CCRF-CEM
HL-60 = test system: HL-60
SF-539 = test system: SF-539
HCT-116 = test system: HCT-116
RPMI-8226 = test system: RPMI-8226
SN12C = test system: SN12C
MDA-MB-231 = test system: MDA-MB-231
M14 = test system: M14
MOLT-4 = test system: MOLT-4
UACC-62 = test system: UACC-62
BT-549 = test system: BT-549
HCT-15 = test system: HCT-15
NCI-H460 = test system: NCI-H460
SK-OV-3 = test system: SK-OV-3
SNB-19 = test system: SNB-19
NCI-H226 = test system: NCI-H226
SK-MEL-28 = test system: SK-MEL-28
SNB-75 = test system: SNB-75
A498 = test system: A498
HOP-92 = test system: HOP-92
TK-10 = test system: TK-10
NCI-H522 = test system: NCI-H522
RXF 393 = test system: RXF 393
HCC 2998 = test system: HCC 2998
Malme-3M = test system: Malme-3M
OVCAR-4 = test system: OVCAR-4

Oc1ccc(/C=N/N=c2\[nH][nH]/c(=N\N=C\c3ccc(O)cc3O)c3ccccc23)c(O)c1
GI50 (U-251): 0.2 µM (active) | GI50 (SR): 0.136 µM (active) | GI50 (UO-31): 0.388 µM (active) | GI50 (ACHN): 0.21 µM (active) | GI50 (CAKI-1): 0.268 µM (active) | GI50 (HOP-62): 0.304 µM (active) | GI50 (DU-145): 0.338 µM (active) | GI50 (OVCAR-8): 0.25 µM (active) | GI50 (SW-620): 0.385 µM (active) | GI50 (EKVX): 0.211 µM (active) | GI50 (MCF7): 0.274 µM (active) | GI50 (NCI-H23): 0.326 µM (active) | GI50 (COLO 205): 0.581 µM (active) | GI50 (IGROV-1): 0.327 µM (active) | GI50 (K562): 0.261 µM (active) | GI50 (A549): 0.315 µM (active) | GI50 (SK-MEL-5): 0.236 µM (active) | GI50 (OVCAR-5): 0.422 µM (active) | GI50 (T47D): 0.271 µM (active) | GI50 (Hs-578T): 0.29 µM (active) | GI50 (HT-29): 0.331 µM (active) | GI50 (UACC-257): 0.428 µM (active) | GI50 (SK-MEL-2): 0.288 µM (active) | GI50 (LOX IMVI): 0.313 µM (active) | GI50 (SF-268): 0.126 µM (active) | GI50 (KM12): 0.275 µM (active) | GI50 (OVCAR-3): 0.185 µM (active) | GI50 (SF-295): 0.295 µM (active) | GI50 (PC-3): 0.375 µM (active) | GI50 (MDA-MB-435): 0.314 µM (active) | GI50 (NCI/ADR-RES): 0.427 µM (active) | GI50 (786-0): 0.378 µM (active) | GI50 (MDA-N): 0.228 µM (active) | GI50 (CCRF-CEM): 0.345 µM (active) | GI50 (HL-60): 0.271 µM (active) | GI50 (SF-539): 0.294 µM (active) | GI50 (HCT-116): 0.313 µM (active) | GI50 (RPMI-8226): 0.3 µM (active) | GI50 (SN12C): 0.308 µM (active) | GI50 (MDA-MB-231): 0.401 µM (active) | GI50 (M14): 0.318 µM (active) | GI50 (MOLT-4): 0.0865 µM (active) | GI50 (UACC-62): 0.234 µM (active) | GI50 (BT-549): 0.21 µM (active) | GI50 (HCT-15): 0.244 µM | GI50 (NCI-H460): 0.355 µM (active) | GI50 (SK-OV-3): 0.428 µM (active) | GI50 (SNB-19): 0.473 µM (active)

CC1(C)CC(=O)c2c(nc3ccc4ccccc4c3c2-c2ccc(NC(=O)CCCC(=O)Nc3ccc(-c4c5c(nc6ccc7ccccc7c46)CC(C)(C)CC5=O)cc3)cc2)C1
GI50 (U-251): > 100 µM (inactive) | GI50 (SR): > 100 µM (inactive) | GI50 (NCI-H226): > 100 µM (inactive) | GI50 (UO-31): > 100 µM (inactive) | GI50 (ACHN): > 100 µM (inactive) | GI50 (CAKI-1): > 100 µM (inactive) | GI50 (HOP-62): > 100 µM (inactive) | GI50 (DU-145): > 100 µM (inactive) | GI50 (OVCAR-8): > 100 µM (inactive) | GI50 (SW-620): > 100 µM (inactive) | GI50 (EKVX): > 100 µM (inactive) | GI50 (MCF7): > 100 µM (inactive) | GI50 (NCI-H23): > 100 µM (inactive) | GI50 (COLO 205): > 100 µM (inactive) | GI50 (IGROV-1): > 100 µM (inactive) | GI50 (K562): > 100 µM (inactive) | GI50 (A549): > 100 µM (inactive) | GI50 (SK-MEL-28): > 100 µM (inactive) | GI50 (SK-MEL-5): > 100 µM (inactive) | GI50 (OVCAR-5): > 100 µM (inactive) | GI50 (T47D): > 100 µM (inactive) | GI50 (Hs-578T): 60.3 µM (inactive) | GI50 (HT-29): > 100 µM (inactive) | GI50 (UACC-257): > 100 µM (inactive) | GI50 (SK-MEL-2): > 100 µM (inactive) | GI50 (LOX IMVI): > 100 µM (inactive) | GI50 (SF-268): > 100 µM (inactive) | GI50 (KM12): > 100 µM (inactive) | GI50 (OVCAR-3): > 100 µM (inactive) | GI50 (SF-295): > 100 µM (inactive) | GI50 (PC-3): > 100 µM (inactive) | GI50 (SNB-75): 41.6 µM (inactive) | GI50 (MDA-MB-435): > 100 µM (inactive) | GI50 (NCI/ADR-RES): > 100 µM (inactive) | GI50 (A498): > 100 µM (inactive) | GI50 (786-0): > 100 µM (inactive) | GI50 (MDA-N): > 100 µM (inactive) | GI50 (CCRF-CEM): > 100 µM (inactive) | GI50 (HL-60): 5.94 µM (inactive) | GI50 (SF-539): > 100 µM (inactive) | GI50 (HOP-92): > 100 µM (inactive) | GI50 (HCT-116): > 100 µM (inactive) | GI50 (RPMI-8226): > 100 µM (inactive) | GI50 (SN12C): > 100 µM (inactive) | GI50 (MDA-MB-231): > 100 µM (inactive) | GI50 (M14): > 100 µM (inactive) | GI50 (MOLT-4): > 100 µM (inactive) | GI50 (UACC-62): > 100 µM (inactive) | GI50 (BT-549): > 100 µM (inactive) | GI50 (HCT-15): > 100 µM | GI50 (NCI-H460): > 100 µM (inactive) | GI50 (SK-OV-3): > 100 µM (inactive) | GI50 (SNB-19): > 100 µM (inactive) | GI50 (TK-10): > 100 µM (inactive)

C[N+]1(C)C2Cc3ccccc3C1Cc1ccccc12
GI50 (U-251): > 100 µM (inactive) | GI50 (NCI-H522): > 100 µM (inactive) | GI50 (NCI-H226): > 100 µM (inactive) | GI50 (UO-31): > 100 µM (inactive) | GI50 (ACHN): > 100 µM (inactive) | GI50 (HOP-62): > 100 µM (inactive) | GI50 (DU-145): > 100 µM (inactive) | GI50 (OVCAR-8): > 100 µM (inactive) | GI50 (SW-620): > 100 µM (inactive) | GI50 (RXF 393): > 100 µM (inactive) | GI50 (EKVX): > 100 µM (inactive) | GI50 (MCF7): > 100 µM (inactive) | GI50 (NCI-H23): > 100 µM (inactive) | GI50 (COLO 205): > 100 µM (inactive) | GI50 (IGROV-1): > 100 µM (inactive) | GI50 (A549): > 100 µM (inactive) | GI50 (SK-MEL-28): > 100 µM (inactive) | GI50 (SK-MEL-5): > 100 µM (inactive) | GI50 (OVCAR-5): > 100 µM (inactive) | GI50 (T47D): > 100 µM (inactive) | GI50 (Hs-578T): > 100 µM (inactive) | GI50 (HT-29): > 100 µM (inactive) | GI50 (UACC-257): > 100 µM (inactive) | GI50 (SK-MEL-2): > 100 µM (inactive) | GI50 (LOX IMVI): > 100 µM (inactive) | GI50 (SF-268): > 100 µM (inactive) | GI50 (KM12): > 100 µM (inactive) | GI50 (OVCAR-3): 90.8 µM (inactive) | GI50 (SF-295): > 100 µM (inactive) | GI50 (PC-3): 75.7 µM (inactive) | GI50 (MDA-MB-435): > 100 µM (inactive) | GI50 (NCI/ADR-RES): > 100 µM (inactive) | GI50 (HCC 2998): > 100 µM (inactive) | GI50 (A498): > 100 µM (inactive) | GI50 (786-0): > 100 µM (inactive) | GI50 (Malme-3M): > 100 µM (inactive) | GI50 (MDA-N): 78.2 µM (inactive) | GI50 (CCRF-CEM): > 100 µM (inactive) | GI50 (HL-60): > 100 µM (inactive) | GI50 (SF-539): > 100 µM (inactive) | GI50 (HOP-92): 61.1 µM (inactive) | GI50 (HCT-116): > 100 µM (inactive) | GI50 (RPMI-8226): 62.7 µM (inactive) | GI50 (SN12C): > 100 µM (inactive) | GI50 (MDA-MB-231): > 100 µM (inactive) | GI50 (M14): > 100 µM (inactive) | GI50 (MOLT-4): > 100 µM (inactive) | GI50 (UACC-62): 71.6 µM (inactive) | GI50 (BT-549): > 100 µM (inactive) | GI50 (HCT-15): > 100 µM | GI50 (NCI-H460): > 100 µM (inactive) | GI50 (SK-OV-3): > 100 µM (inactive) | GI50 (SNB-19): > 100 µM (inactive) | GI50 (TK-10): > 100 µM (inactive) | GI50 (OVCAR-4): > 100 µM (inactive)
